What was measured:
Assay type in all cases: in vivo
[1] = test system: soybean (Glycine max -- var. Winchester); experiment: pre-emergence herbicidal activity, soybean; settings: 1 kg/Ha, about fourteen days, read-out: pre-emergence herbicidal activity (% control) SOY
Procedure, shortened: (§1)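 Seeds sown in soil flats and sprayed pre-emergence with a water/acetone solution of test compound at 1 kg/Ha; untreated controls kept alongside. Phytotoxicity scored after about fourteen days as percent control, 0 being no effect and 100 complete control.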

[2] = test system: wheat (Triticum aestivum var. Lew); experiment: pre-emergence herbicidal activity, wheat; settings: 1 kg/Ha, about fourteen days, read-out: pre-emergence herbicidal activity (% control) WHT
Procedure, shortened: as §1

[3] = test system: field corn (Zea mays var. Pioneer 3732); experiment: pre-emergence herbicidal activity, corn; settings: 1 kg/Ha, about fourteen days, read-out: pre-emergence herbicidal activity (% control) CRN
Procedure, shortened: as §1

[4] = test system: velvetleaf (Abutilon theophrasti); experiment: pre-emergence herbicidal activity, velvetleaf; settings: 1 kg/Ha, about fourteen days, read-out: pre-emergence herbicidal activity (% control) ABUTH
Procedure, shortened: as §1

[5] = test system: morningglory (Ipomea lacunosa or Ipomea hederacea); experiment: pre-emergence herbicidal activity, morningglory; settings: Ipomoea, 1 kg/Ha, about fourteen days, read-out: pre-emergence herbicidal activity (% control) IPOSS
Procedure, shortened: as §1

[6] = test system: common chickweed (Stellaria media); experiment: pre-emergence herbicidal activity, chickweed; settings: 1 kg/Ha, about fourteen days, read-out: pre-emergence herbicidal activity (% control) STEME
Procedure, shortened: as §1

[7] = test system: common cocklebur (Xanthium strumarium L.); experiment: pre-emergence herbicidal activity, cocklebur; settings: 1 kg/Ha, about fourteen days, read-out: pre-emergence herbicidal activity (% control) XANPE
Procedure, shortened: as §1

[8] = test system: blackgrass (Aloepecurus myosuroides); experiment: pre-emergence herbicidal activity, blackgrass; settings: Alopecurus myosuroides, 1 kg/Ha, about fourteen days, read-out: pre-emergence herbicidal activity (% control) ALOMY
Procedure, shortened: as §1

[9] = test system: green foxtail (Setaria viridis); experiment: pre-emergence herbicidal activity, green foxtail; settings: 1 kg/Ha, about fourteen days, read-out: pre-emergence herbicidal activity (% control) SETVI
Procedure, shortened: as §1

[10] = test system: Johnsongrass (Sorghum halepense); experiment: pre-emergence herbicidal activity, johnsongrass; settings: 1 kg/Ha, about fourteen days, read-out: pre-emergence herbicidal activity (% control) SORHA
Description: This example sets forth the methods of herbicidal testing conducted on the specific compounds set forth below. Specifically, the compounds referenced below were tested for pre- and post-emergence herbicidal activity using a variety of crops and weeds. The test plants include, but are not limited to, soybean (Glycine max -- var. Winchester), field corn (Zea mays var. Pioneer 3732), wheat (Triticum aestivum var. Lew), morningglory (Ipomea lacunosa or Ipomea hederacea), velvetleaf (Abutilon theophrasti), green foxtail (Setaria viridis), Johnsongrass (Sorghum halepense), blackgrass (Aloepecurus myosuroides), common chickweed (Stellaria media), and common cocklebur (Xanthium strumarium L.).
In the post-emergence test, seeds of the plant species named above were planted in flats containing the appropriate soil mixture where they were maintained to allow the seeds to germinate. When the plants in these flats reached the proper stage of growth, flats for the pre-emergence tests were planted in a like manner. The flats containing the post-emergence and pre-emergence test plant species were then sprayed with an appropriately concentrated water/acetone solution of test compound. Once treated the flats were maintained, along with untreated controls, for about fourteen days. All treated plants were then examined for phytotoxicity, which was expressed as percent control where 0 is no effect and 100 is complete control. Effective rates of application for the compounds of the present invention range from 0.001 to 3 kg/ha, more likely from […] to 1 Kg/ha.
Herbicidal activity data at selected application rates are in Tables 4 and 5. The test compounds are identified by numbers correspond to those in Table 1.
Rate of application of test compound is 1 kg/Ha
SOY is soybean, WHT is wheat, CRN is corn, ABUTH is velvetleaf, IPOSS is
morningglory, STEME is chickweed, XANPE is cocklebur, ALOMY is blackgrass, […]

[11] = test system: soybean (Glycine max -- var. Winchester); experiment: post-emergence herbicidal activity, soybean; settings: 1 Kg/Ha, about fourteen days, read-out: post-emergence herbicidal activity (% control) SOY
Procedure, shortened: (§2)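 Percent control (0–100) was rated about fourteen days after spraying of emerged, germinated plants in flats with compound dissolved in water/acetone at 1 Kg/Ha.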

[12] = test system: wheat (Triticum aestivum var. Lew); experiment: post-emergence herbicidal activity, wheat; settings: 1 Kg/Ha, about fourteen days, read-out: post-emergence herbicidal activity (% control) WHT
Procedure, shortened: as §2

[13] = test system: field corn (Zea mays var. Pioneer 3732); experiment: post-emergence herbicidal activity, corn; settings: 1 Kg/Ha, about fourteen days, read-out: post-emergence herbicidal activity (% control) CRN
Procedure, shortened: as §2

[14] = test system: velvetleaf (Abutilon theophrasti); experiment: post-emergence herbicidal activity, velvetleaf; settings: 1 Kg/Ha, about fourteen days, read-out: post-emergence herbicidal activity (% control) ABUTH
Procedure, shortened: as §2

[15] = test system: morningglory (Ipomea lacunosa or Ipomea hederacea); experiment: post-emergence herbicidal activity, morningglory; settings: Ipomoea, 1 Kg/Ha, about fourteen days, read-out: post-emergence herbicidal activity (% control) IPOSS
Procedure, shortened: as §2

[16] = test system: common chickweed (Stellaria media); experiment: post-emergence herbicidal activity, chickweed; settings: 1 Kg/Ha, about fourteen days, read-out: post-emergence herbicidal activity (% control) STEME
Procedure, shortened: as §2

[17] = test system: common cocklebur (Xanthium strumarium L.); experiment: post-emergence herbicidal activity, cocklebur; settings: 1 Kg/Ha, about fourteen days, read-out: post-emergence herbicidal activity (% control) XANPE
Procedure, shortened: as §2

[18] = test system: blackgrass (Aloepecurus myosuroides); experiment: post-emergence herbicidal activity, blackgrass; settings: Alopecurus myosuroides, 1 Kg/Ha, about fourteen days, read-out: post-emergence herbicidal activity (% control) ALOMY
Procedure, shortened: as §2

[19] = test system: green foxtail (Setaria viridis); experiment: post-emergence herbicidal activity, green foxtail; settings: 1 Kg/Ha, about fourteen days, read-out: post-emergence herbicidal activity (% control) SETVI
Procedure, shortened: as §2

[20] = test system: Johnsongrass (Sorghum halepense); experiment: post-emergence herbicidal activity, johnsongrass; settings: 1 Kg/Ha, about fourteen days, read-out: post-emergence herbicidal activity (% control) SORHA
Procedure, shortened: as §2

Row | Compound | activity at 1000 g/ha [1] [%] | activity at 1000 g/ha [2] [%] | activity at 1000 g/ha [3] [%] | activity at 1000 g/ha [4] [%] | activity at 1000 g/ha [5] [%] | activity at 1000 g/ha [6] [%] | activity at 1000 g/ha [7] [%] | activity at 1000 g/ha [8] [%] | activity at 1000 g/ha [9] [%] | activity at 1000 g/ha [10] [%] | activity at 1000 g/ha [11] [%] | activity at 1000 g/ha [12] [%] | activity at 1000 g/ha [13] [%] | activity at 1000 g/ha [14] [%] | activity at 1000 g/ha [15] [%] | activity at 1000 g/ha [16] [%] | activity at 1000 g/ha [17] [%] | activity at 1000 g/ha [18] [%] | activity at 1000 g/ha [19] [%] | activity at 1000 g/ha [20] [%]
1 | CC(C)N1Cc2c(-n3c(=O)cc(C(F)(F)F)n(C)c3=O)ccc(Cl)c2C1=O [Compound 3, 3-[7-chloro-2-(1-methylethyl)isoindolin-1-on-4-yl]-1-methyl-6-trifluoromethyl-2,4(1H,3H)-pyrimidinedione] | 100 | 100 | 100 | 100 | 100 | 100 | 100 | 100 | 100 | 100 | 95 | 100 | 100 | 100 | 100 | 100 | 100 | 100 | 100 | 100
2 | CC(C)N1Cc2c(ccc(Cl)c2-n2c(=O)cc(C(F)(F)F)n(C)c2=O)C1=O [Compound 1] | 90 | 80 | 95 | 100 | 100 | 90 | 70 | 80 | 100 | 90 | 95 | 70 | 90 | 100 | 70 | 50 | 60 | 75 | 80 | 100
3 | CC(C)N1Cc2c(c(Cl)cc(Cl)c2-n2c(=O)cc(C(F)(F)F)n(C)c2=O)C1=O [Compound 4] | 100 | 100 | 100 | 100 | 100 | 100 | 100 | 100 | 100 | 100 | 100 | 100 | 100 | 100 | 100 | 100 | 100 | 100 | 100 | 100
4 | Cn1c(C(F)(F)F)cc(=O)n(-c2c(Cl)cc(Cl)c3c2CN(C(C)(C)C)C3=O)c1=O [Compound 6] | 100 | 100 | 100 | 100 | 100 | 100 | 100 | 100 | 100 | 100 | 90 | 80 | 100 | 100 | 95 | 100 | 100 | 100 | 100 | 100
5 | CCN1Cc2c(c(Cl)cc(Cl)c2-n2c(=O)cc(C(F)(F)F)n(C)c2=O)C1=O [Compound 5] | 100 | 100 | 100 | 100 | 100 | 100 | 100 | 100 | 100 | 100 | 95 | 100 | 100 | 100 | 100 | 100 | 100 | 100 | 100 | 100

Source: patent US6277847A, “Herbicidal isoindolinonyl-and 3,4-dihydroisoquinolonyl-substituted heterocycles” (FMC Corporation, priority 2000, dated 2001)
